Data taken from patent US12280072B2, “Oligosaccharide compound for inhibiting intrinsic coagulation factor X-enzyme complex, and preparation method therefor and uses thereof” (Jiuzhitang Co., Ltd., priority 2017, dated 2025).

How the values were obtained:
Format in all cases: biochemical
intrinsic factor Xase = biological target: T1, intrinsic factor Xase (Homo sapiens, UniProt P00740); assay: Xase inhibitory activity assay; details: read-out: Drug concentration required to inhibit 50% of coagulation factor activity (IC50, ng/mL) Xase (converted)
T1 construct: 60 nM FIXa; purchased
Description: Xase inhibitory activity assay: Detection was performed according to kit instructions and literature methods by combining the Factor VIII and […]. Specifically, to each well of a 96-well plate, 30 μL of test solution, control solution, or Tris-HCl buffer (negative control) was added, and 30 μl of FVIII (2 IU/ml), 30 μl of R2 (60 nM FIXa, containing FIIa, PC/PS, Ca^2+) were sequentially added, mixed by shaking the plate, incubated at 37° C. for 2 min; and then 30 μL of R1 (50 nM FX, containing direct thrombin inhibitor) was added, mixed by shaking the plate, incubated at 37° C. for 1 min; and then 30 μL of R3 (FXa chromogenic substrate SXa-11, about 8.4 mM) was added. The absorbance at 405 nm (OD405) was detected with a microplate reader, continuously measuring for 7.5 min at a interval of 30 s. The Xase activity and IC50 value of Xase inhibition of the test sample were calculated based on the OD405 change value.
(§1) Data processing: The average value of OD405 detected by the duplicated well was used as the detection value of the test sample and the reference of each concentration, and the slope of the linear fit between the detected value to the time value (the change rate of the absorbance value OD405/min) indicated enzymatic activity of coagulation factor. Taking the clotting factor activity of the negative control well as 100%, coagulation factor activity (percentage) in the presence of the test sample was calculated. The coagulation factor activity in the presence of the test sample was plotted against the concentration of the test sample, and fitted according to the following formula, to calculate the IC50 value: B=(IC50)^n/{(IC50)^n+[I]^n}
(§2) in the formula, B is the coagulation factor activity (percentage) in the presence of the test sample, [I] is the concentration of the test sample, IC50 is the half inhibitory concentration (concentration of the test sample required to inhibit 50% of the activity), and n is the Hill coefficient. • (4) Effect on surface activation and platelet activity: […]

human-controlled plasma [1] = assay: Anticoagulant activity assay: PT clotting time
Description: (§3) 8.2 Methods • (1) Preparation of sample solution: Oligosaccharide compounds A1˜A8, B1˜B11 and oligosaccharide mixtures C1, D1, D2 were all dissolved in Tris-HCl buffer and diluted to the desired series of solubility. • (2) Anticoagulant activity assay: 90 μL of human-controlled plasma was added to the sample or 10 μL of the control solution, and then the clotting time (APTT and PT) was detected by the MC-4000 coagulometer according to the method described in the APTT and PT kit instructions. • (3) Coagulation factor inhibitory activity analysis: […]

human-controlled plasma [2] = assay: Anticoagulant activity assay: APTT clotting time
Description: as §3

FIIa (Homo sapiens) = biological target: T2, FIIa (Homo sapiens); assay: AT-dependent IIa inhibitory activity assay; details: in presence of AT; read-out: Drug concentration required to inhibit 50% of coagulation factor activity (IC50, ng/mL) Ha (AT)
T2 construct: antithrombin (i.e., active coagulation factor IIa); purchased
Description: AT-dependent IIa inhibitory activity assay: Heparin Anti-FIIa kit was used for detection. To a 96-well plate, 30 μL of sample, control solution or Tris-HCl buffer (negative control) was added, and then 30 μL of 1 IU/mL AT solution was added, mixed well by shaking the plate and incubated at 37° C. for 2 min; 30 μL of 24 IU/mL FIIa solution was added, mixed well by shaking the plate and incubated for 2 min at 37° C., and then 30 μL of pre-warmed 1.25 mM FIIa specific chromogenic substrate CS-01 (38) was added, mixed well by shaking the plate. The OD405 was detected by a microplate reader and the IC50 value of FIIa inhibition of each sample was calculated.
as §1, §2

plasma = assay: TT (thrombin time) clotting time
FXa (Homo sapiens) = biological target: T3, FXa (Homo sapiens); assay: AT-dependent Xa inhibitory activity assay; details: in presence of AT; read-out: Drug concentration required to inhibit 50% of coagulation factor activity (IC50, ng/mL) Xa (AT)
T3 construct: 8 μg/mL FXa solution; purchased
Description: AT-dependent Xa inhibitory activity assay: Heparin […] kit was used for detection. To a 96-well plate, 30 μL of sample, control solution or Tris-HCl buffer (negative control) was added, then 30 μL of 1 IU/mL AT solution was added, mixed well and incubated at 37° C. for 1 min; and than 30 μL of 8 μg/mL FXa solution was added, mixed well and incubated at 37° C. for 1 min, then 30 μL of pre-warmed 1.25 mM Xa chromogenic substrate SXa-11 was added. OD405 was detected by a microplate reader.
as §1, §2

T2 sequence (P01008 33-464): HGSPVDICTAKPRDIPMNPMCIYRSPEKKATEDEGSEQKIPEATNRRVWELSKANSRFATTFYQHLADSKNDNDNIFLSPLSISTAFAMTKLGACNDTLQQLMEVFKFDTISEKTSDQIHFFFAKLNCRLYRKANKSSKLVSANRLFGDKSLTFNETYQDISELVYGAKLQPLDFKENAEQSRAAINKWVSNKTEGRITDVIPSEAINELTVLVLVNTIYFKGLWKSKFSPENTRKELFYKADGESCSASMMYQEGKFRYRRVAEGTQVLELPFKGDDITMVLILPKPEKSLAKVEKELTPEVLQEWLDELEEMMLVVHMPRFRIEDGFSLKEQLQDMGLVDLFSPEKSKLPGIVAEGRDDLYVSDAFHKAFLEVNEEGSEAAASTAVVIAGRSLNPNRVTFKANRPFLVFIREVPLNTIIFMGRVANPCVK
T3 sequence (P01008 33-464): as above
T1 sequence (P00740 47-191 limits assumed): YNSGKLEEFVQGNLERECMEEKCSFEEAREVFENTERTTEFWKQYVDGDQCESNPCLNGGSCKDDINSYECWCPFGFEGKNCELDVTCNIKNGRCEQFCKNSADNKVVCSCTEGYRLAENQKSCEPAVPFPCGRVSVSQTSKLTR
T1 sequence (P00740 227-461 limits assumed): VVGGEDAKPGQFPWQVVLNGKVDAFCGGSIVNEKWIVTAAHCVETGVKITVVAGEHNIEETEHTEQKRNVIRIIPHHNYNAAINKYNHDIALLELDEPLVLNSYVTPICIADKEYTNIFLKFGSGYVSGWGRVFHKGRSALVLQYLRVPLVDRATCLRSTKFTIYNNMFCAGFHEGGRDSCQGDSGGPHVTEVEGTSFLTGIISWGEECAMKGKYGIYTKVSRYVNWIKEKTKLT

Compound	IC50 (intrinsic factor Xase)	Drug concentration required for multiplication of coagulation time (μg/mL) PT (human-controlled plasma [1])	Drug concentration required for multiplication of coagulation time (μg/mL) APTT (human-controlled plasma [2])	IC50 (FIIa (Homo sapiens))	Drug concentration required for multiplication of coagulation time (μg/mL) TT (plasma)	IC50 (FXa (Homo sapiens))
CC1OC(OC2C=C(C(=O)O)OC(OC3C(NS(=O)(=O)O)C(OC4C(C(=O)O)OC(OC5C(NS(=O)(=O)O)C(OC6C(C(=O)O)OC(OC(C(CO)NS(=O)(=O)O)C(OS(=O)(=O)O)C(O)COS(=O)(=O)O)C(O)C6OC6OC(C)C(OS(=O)(=O)O)C(O)C6OS(=O)(=O)O)OC(COS(=O)(=O)O)C5OS(=O)(=O)O)C(O)C4OC4OC(C)C(OS(=O)(=O)O)C(O)C4OS(=O)(=O)O)OC(COS(=O)(=O)O)C3OS(=O)(=O)O)C2O)C(OS(=O)(=O)O)C(O)C1OS(=O)(=O)O [Compound A7, L-Fuc2S4S-(α1,3)-L-ΔUA-(α1,3)-{D-GalNS4S6S-(β1,4)-[L-Fuc2S4S-(α1,3)-]-D-GlcA-(β1,3)}2-D-Gal-NS4S6S-ol]	22.2 nM	# (>128 μg/mL)	6.9 µg/mL	> 1880 nM	# (>128 μg/mL)	> 1880 nM
CC(=O)NC1C(OC2C(C(=O)O)OC(OC3C(NC(C)=O)C(OC(C(O)C(=O)O)C(OC4OC(C)C(OS(=O)(=O)O)C(OS(=O)(=O)O)C4O)C(O)CO)OC(COS(=O)(=O)O)C3OS(=O)(=O)O)C(O)C2OC2OC(C)C(OS(=O)(=O)O)C(OS(=O)(=O)O)C2O)OC(COS(=O)(=O)O)C(OS(=O)(=O)O)C1OC1OC(C(=O)O)=CC(OC2OC(C)C(OS(=O)(=O)O)C(OS(=O)(=O)O)C2O)C1O [Compound B2, L-Fuc3S4S-(α1,3)-L-ΔUA-(α1,3)-{D-GalNAc4S6S-(β1,4)-[L-Fuc3S4S-(α1,3)]-D-GlcA-(β1,3)}˜-D-GalNAc4S6S-(β1,4)-[L-Fuc3S4S-(α1,3)]-D-GlcA-ol]	29.5 nM	# (>128 μg/mL)	7.5 µg/mL	> 2300 nM	# (>128 μg/mL)	> 2300 nM
COCC(NC(C)=O)C(OC1OC(C(=O)OC)C(OC2OC(COS(=O)(=O)O)C(OS(=O)(=O)O)C(OC3OC(C(=O)OC)C(OC4OC(COS(=O)(=O)O)C(OS(=O)(=O)O)C(OC5OC(C(=O)OC)=CC(OC6OC(C)C(OS(=O)(=O)O)C(O)C6OS(=O)(=O)O)C5O)C4NC(C)=O)C(OC4OC(C)C(OS(=O)(=O)O)C(O)C4OS(=O)(=O)O)C3O)C2NC(C)=O)C(OC2OC(C)C(OS(=O)(=O)O)C(O)C2OS(=O)(=O)O)C1O)C(OS(=O)(=O)O)C(O)COS(=O)(=O)O [Compound A8, L-Fuc2S4S-(α1,3)-[6-Methyl-ΔUA-(α1,3)]-{D-GaNAc4S6S-(β1,4)-[L-Fuc2S4S-(α1,3)-]-D-6-Methyl-GlcA-(β1,3)}2-D-1-Methyl-Gal-NAc4S6S-ol]	27.2 nM	# (>128 μg/mL)	8.2 µg/mL	> 1930 nM	# (>128 μg/mL)	> 1930 nM
CC(=O)NC1C(OC2C(C(=O)O)OC(OC3C(NC(C)=O)C(OC4C(C(=O)O)OC(O)C(O)C4OC4OC(C)C(OS(=O)(=O)O)C(OS(=O)(=O)O)C4O)OC(COS(=O)(=O)O)C3OS(=O)(=O)O)C(O)C2OC2OC(C)C(OS(=O)(=O)O)C(OS(=O)(=O)O)C2O)OC(COS(=O)(=O)O)C(OS(=O)(=O)O)C1OC1OC(C(=O)O)=CC(OC2OC(C)C(OS(=O)(=O)O)C(OS(=O)(=O)O)C2O)C1O [Compound B7, L-Fuc3S4S-(α1,3)-L-ΔUA-(α1,3)-{D-GaNAc4S6S-(β1,4)-[L-Fuc3S4S-(α1,3)]-D-GlcA-(β1,4)}˜-D-GalNAc4S6S-(β1,4)-[L-Fuc3S4S-(α1,3)]-D-GlcA]	26.8 nM	# (>128 μg/mL)	7.3 µg/mL	> 2300 nM	# (>128 μg/mL)	> 2300 nM
